Data as given in the supplement of paper PMC10307832.

What was measured:
Experiment in all cases: relative viability (nuclei count vs DMSO), 5 days (fraction); higher = more cells survive
EHT 1864 + Navitoclax = compound: C1COCCN1CC2=CC(=O)C(=CO2)OCCCCCSC3=C4C=CC(=CC4=NC=C3)C(F)(F)F [EHT 1864] + CC1(C)CCC(c2ccc(Cl)cc2)=C(CN2CCN(c3ccc(C(=O)NS(=O)(=O)c4ccc(N[C@H](CCN5CCOCC5)CSc5ccccc5)c(S(=O)(=O)C(F)(F)F)c4)cc3)CC2)C1 [Navitoclax] (partner 0.5 µM)
Outline: (§1)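 The day after seeding in 1536-well plates, lung cancer cell lines were treated by pin tool with a single drug, or with a fixed anchor-drug dose together with five library-drug doses (not always all listed) in √10 steps. After 5 days, a combined fix-and-stain solution (final 0.05% Triton X-100, 1% formaldehyde, 1 ug/ml Hoechst) was added. Nuclei counted on 4× images gave relative viability as treated counts over vehicle counts, reported as the median of duplicate plates.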

EHT 1864 + Tozasertib = compound: C1COCCN1CC2=CC(=O)C(=CO2)OCCCCCSC3=C4C=CC(=CC4=NC=C3)C(F)(F)F [EHT 1864] + Cc1cc(Nc2cc(N3CCN(C)CC3)nc(Sc3ccc(NC(=O)C4CC4)cc3)n2)n[nH]1 [Tozasertib] (partner 0.1 µM)
Outline: as §1

EHT 1864 + Phenformin = compound: C1COCCN1CC2=CC(=O)C(=CO2)OCCCCCSC3=C4C=CC(=CC4=NC=C3)C(F)(F)F [EHT 1864] + N=C(N)NC(=N)NCCc1ccccc1 [Phenformin] (partner 250 µM)
Outline: as §1

EHT 1864 = compound: C1COCCN1CC2=CC(=O)C(=CO2)OCCCCCSC3=C4C=CC(=CC4=NC=C3)C(F)(F)F [EHT 1864]
Outline: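 Vehicle-anchored 1536-well plates of lung cancer cell lines, held overnight at 37 °C, were pinned with five library-drug doses (not always all listed) spaced by √10. No medium change followed over the next 5 days, after which the cells were fixed, permeabilised and Hoechst-stained together and imaged at 4×. Nuclei were counted with MetaXpress, and viability is treated-well nuclei over vehicle-well nuclei, taken as a median across plates. Plates passed with control CV below 25% and at least one doubling.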

Row | Cell Line | relative viability (EHT 1864 + Navitoclax; first compound 0.04 µM) | relative viability (EHT 1864 + Navitoclax; first compound 0.1265 µM) | relative viability (EHT 1864 + Navitoclax; first compound 0.4 µM) | relative viability (EHT 1864 + Navitoclax; first compound 1.265 µM) | relative viability (EHT 1864 + Navitoclax; first compound 4 µM) | relative viability (EHT 1864 + Tozasertib; first compound 0.04 µM) | relative viability (EHT 1864 + Tozasertib; first compound 0.1265 µM) | relative viability (EHT 1864 + Tozasertib; first compound 0.4 µM) | relative viability (EHT 1864 + Tozasertib; first compound 4 µM) | relative viability (EHT 1864 + Phenformin; first compound 0.04 µM) | relative viability (EHT 1864 + Phenformin; first compound 0.1265 µM) | relative viability (EHT 1864 + Phenformin; first compound 0.4 µM) | relative viability (EHT 1864 + Phenformin; first compound 4 µM) | relative viability (EHT 1864; 0.04 µM) | relative viability (EHT 1864; 0.1265 µM) | relative viability (EHT 1864; 0.4 µM) | relative viability (EHT 1864; 1.265 µM) | relative viability (EHT 1864; 4 µM) | relative viability (EHT 1864 + Tozasertib; first compound 1.265 µM) | relative viability (EHT 1864 + Phenformin; first compound 1.265 µM)
1 | NCI-H2347 | 0.77 | 0.708 | 0.812 | 0.714 | 0.828 | 0.606 | 0.446 | 0.501 | 0.562 | 0.585 | 0.432 | 0.478 | 0.46 | 1.07 | 0.75 | 1.01 | 0.966 | 1.03 |  | 
2 | NCI-H2405 | 0.978 | 0.832 | 0.965 |  | 0.725 | 0.8 | 0.678 | 0.847 | 0.726 | 0.445 | 0.42 | 0.44 | 0.37 | 1.07 | 1 | 0.994 | 0.821 | 0.994 | 0.633 | 0.289
3 | NCI-H3122 | 1.06 | 1.01 | 0.987 | 1.06 | 0.987 | 0.358 | 0.275 | 0.398 | 0.392 | 0.415 | 0.373 | 0.362 | 0.304 | 0.99 | 0.98 | 0.994 | 0.999 | 0.945 | 0.398 | 0.345
4 | PC-3 [JPC-3] | 0.788 | 0.72 | 0.849 | 0.844 | 0.805 | 0.818 | 0.812 | 0.903 | 0.843 | 0.507 | 0.439 | 0.451 | 0.51 | 1.1 | 0.908 | 1.02 | 1.05 | 0.953 | 0.896 | 0.478
5 | PC-14 | 1.06 | 0.957 | 0.952 | 1.02 | 1.06 | 0.607 |  | 0.555 | 0.53 | 0.652 |  | 0.615 | 0.513 | 1.01 | 0.823 | 1.04 | 1.03 | 0.939 | 0.623 | 0.594
6 | RERF-LC-KJ | 0.985 | 0.829 | 0.823 | 0.931 | 0.888 | 0.493 | 0.473 | 0.523 | 0.352 | 0.381 | 0.428 | 0.453 | 0.404 | 1.02 | 0.928 | 0.936 | 0.994 | 0.956 | 0.381 | 0.393
7 | SK-LU-1 | 0.867 | 0.768 | 0.824 | 1.01 | 0.744 | 0.313 | 0.286 | 0.274 | 0.293 | 0.538 | 0.36 | 0.52 | 0.587 | 1.07 | 0.93 | 1.01 | 0.993 | 0.939 | 0.297 | 0.575
8 | SK-MES-1 | 1.3 | 1.13 | 1.29 | 1.31 | 1.17 | 0.972 | 0.885 | 0.888 | 0.81 | 0.726 | 0.67 | 0.605 | 0.602 | 0.97 | 0.943 | 1.02 | 0.967 | 0.974 | 0.823 | 0.577
9 | SW 1573 | 0.999 | 0.978 | 1.01 | 0.958 | 0.725 | 0.173 | 0.158 | 0.172 | 0.154 | 0.436 | 0.34 | 0.347 | 0.382 | 1.03 | 0.817 | 1.01 | 0.931 | 0.902 | 0.225 | 0.334
10 | UMC-11 | 0.345 | 0.294 | 0.27 | 0.304 | 0.322 | 0.206 |  | 0.2 | 0.192 | 0.356 | 0.275 |  | 0.31 | 1 | 0.804 | 0.901 | 0.985 | 1.17 | 0.207 | 0.324
